Experimental data as given in US11851681B2, “Cell preparation method” (KYOTO PREFECTURAL PUBLIC UNIVERSITY CORPORATION, priority 2015, dated 2023).

Experiments:
Format in all cases: cell-based
[1] = tested on: Human normal skin-derived fibroblasts (HDFs); assay: Real-time RT-PCR of ALP, Osteocalcin, Bonesialoprotein, Example 35; conditions: day 18, FIG. 39
Procedure: The concentrations of the small molecule compound or cytokine added are as follows. • ALK5 i II: 4 μM • 1α,25-dihydroxy Vitamin D3 (VD3): 5 nM • Human insulin-like growth factor-1 (IGF-1): 100 ng/ml.

[2] = tested on: human dermal fibroblasts; HDFs; assay: Alizarin Red S staining (absorbance OD 550 nm), Example 2; conditions: each compound 2 μM in calcification induction medium; day 24; FIG. 2
Procedure: (§1) The concentrations of the compounds are as follows: • D4476: 2 μM • SB431542: 2 μM • ALK5 inhibitor II: 2 μM.

[3] = tested on: Human normal skin-derived fibroblasts (HDFs); assay: Real-time RT-PCR of UCP1, four inhibitors, Example 39; conditions: 4 μM, 8 μM, 12 μM or 16 μM in adipocyte induction medium Day 1 to Day 8, then compound-free to day 14; FIG. 43
Procedure: The addition concentration of the compound was 4 μM, 8 μM, 12 μM or 16 μM. […] Thereafter, in Day 9-Day 14, culturing was performed in a medium free of ALK5 inhibitor II, LY2157299, SB431542, D4476.

[4] = tested on: Human normal skin-derived fibroblasts (HDFs); assay: Alizarin Red S and ALP staining, absorbance, TGF-β pathway inhibitor panel, Examples 31-32; conditions: for efficiency in converting fibroblast to osteoblast (summary statement): description, conditions not given
Procedure: On day 21, the culture medium was removed from a part of the well, washed with PBS(-), and fixed with a fixative. It was washed 3 times with sterile distilled water. […] In the experiment of Example 31, the solution after staining with the Alizarin Red S staining solution was collected in a 96 well plate and the absorbance (OD 550 nm) was measured with an absorption spectrometer.

[5] = tested on: human dermal fibroblasts; HDFs; assay: BODIPY staining and fluorescence intensity, Example 15; conditions: compound 2 μM in addition to T3 1 nM and Rosiglitazone 1 μM; day 14; FIG. 15A, 15B
Procedure: The concentrations of the additives are as follows: • T3: 1 nM • Rosiglitazone: 1 μM • D4476: 2 μM • SB431541: 2 μM • ALK5 inhibitor II: 2 μM.
The cells were fixed with 4% para-formaldehyde, washed with PBS(−), reacted for 5 min with BODIPY 493/503 (Invitrogen)/PBS solution at room temperature and washed 3 times with PBS. The cells were photographed with a fluorescence microscope at ×200 magnification and the fluorescence intensity was measured.

[6] = tested on: human dermal fibroblasts; HDFs; assay: Bodipy staining in WA medium, four inhibitors, Example 48; conditions: day 12, FIG. 52; for lipid droplets stained with Bodipy, inhibitor alone: WA medium added with 16 μM compound alone; for lipid droplets stained with Bodipy / conversion to white adipocyte, inhibitor and Rosiglitazone: WA medium added with 16 μM compound and 1 μM Rosiglitazone
[7] = tested on: human dermal fibroblasts; HDFs; assay: Bodipy staining quantification in WA medium, four inhibitors, Example 49; conditions: 16 μM compound and 1 μM Rosiglitazone, day 12, FIG. 53
[8] = tested on: Human normal skin-derived fibroblasts (HDFs); assay: Immunostaining of UCP1, four inhibitors, Example 40; conditions: LY2157299 8 μM, SB431542 4 μM, D4476 4 μM, Day 1 to Day 8, day 14, FIG. 44; for conversion of fibroblast to brown adipocyte, UCP1 protein: ALK5 inhibitor II 4 μM; for staining with anti-UCP1 antibody: groups 3-6: ALK5 inhibitor II 4 μM
Procedure: Human normal skin-derived fibroblasts (HDFs) were suspended in a general medium (DMEM added with 10% FBS). […] The adipocyte induction medium is DMEM added with 1 nM T3, 1 μM Rosiglitazone, 0.5 mM 3-isobutyl-1-methylxanthine (IBMX), 0.5 μM dexamethasone, 1 μg/mL Insulin and 10% FBS. Once every 2 days, the culture medium was exchanged with a fresh one, and culturing was performed from Day 1 to Day 8. Thereafter, from Day 9 to Day 14, the cells were cultured in an adipocyte induction medium free of ALK5 inhibitor II, LY2157299, SB431542, D4476. On day 14, the culture medium was removed by suction from each well, and washed with PBS(−). After fixing with 4% para-formaldehyde, the well was washed with PBS (−), Permanent wave Buffer (0.2% Triton-X addition PBS) was added and the well was incubated for 15 min. After washing 3 times with PBS(−), Blocking One was added, and the mixture was incubated at room temperature for 60 min. Anti-UCP-1 antibody (RD MAB6158) was added and the mixture was reacted for 2 hrs at room temperature, and washed 3 times with Wash buffer. CF488-conjugated anti-mouse Ig antibody (Biotum 20014) was added and the mixture was reacted for 2 hrs at room temperature, and washed 3 times with PBS(−). After nuclear staining with SlowFade Gold antifade reagent with DAPI manufactured by Lifetechnology, the cells were photographed with a fluorescence microscope at ×100 magnification.

[9] = tested on: human dermal fibroblasts; HDFs; assay: Real-time RT-PCR of AdipoQ, Example 14; conditions: D4476, SB431542, ALK5 Inhibitor II 2 μM, PD0325901 1 μM, in addition to T3 and Rosiglitazone; day 14; FIG. 14
Procedure: The concentrations of the additives are as follows: • T3: 1 nM • Rosiglitazone: 1 μM • D4476: 2 μM. • Pifithrin alpha [p53 inhibitor]: 5 μM • PD0325901: 1 μM • SB431542: 2 μM • ALK5 Inhibitor II: 2 μM.

[10] = tested on: human dermal fibroblasts; HDFs; assay: Real-time PCR of AdipoQ, FABP4, PPAR-γ, four inhibitors with Rosiglitazone, Example 50; conditions: WA medium added with 1 μM Rosiglitazone and 16 μM compound; day 12
Source text: On day 12, RNA was recovered from the cells and, in the same manner as in Example 47, mRNA of AdipoQ, FABP4 (mature adipocyte marker), and PPAR-γ (preadipocyte marker) was quantified.

[11] = tested on: human dermal fibroblasts; HDFs; assay: Real-time RT-PCR of CIDEA, Example 13; conditions: compound 2 μM in addition to T3 1 nM and Rosiglitazone 1 μM, adipocyte induction medium; day 14; FIG. 13
Procedure: (§2) The concentrations of the additives are as follows: • T3: 1 nM • Rosiglitazone: 1 μM • D4476: 2 μM • Pifithrin alpha [p53 inhibitor]: 5 μM • SB431542: 2 μM • ALK5 Inhibitor II: 2 μM.

[12] = tested on: human dermal fibroblasts; HDFs; assay: Real-time RT-PCR of Osteocalcin and Alkaline Phosphatase, Example 3; conditions: each compound 2 μM in calcification induction medium; day 24; FIG. 3
Procedure: as §1

[13] = tested on: human dermal fibroblasts; HDFs; assay: Oil Red O staining, fibroblast to brown adipocyte, Example 12; conditions: compound 2 μM in addition to T3 1 nM and Rosiglitazone 1 μM, adipocyte induction medium; day 14; FIG. 12
Procedure: as §2
Then, the cells were washed with sterile distilled water and photographed with a phase contrast microscope at ×100 magnification.

[14] = tested on: human dermal fibroblasts; HDFs; assay: Alizarin Red S staining and absorbance, compound panel, Examples 29-30; conditions: calcification induction medium; compounds 2 μM (Pifthrin-α 5 μM, DZnep 50 nM); day 28; FIG. 33, 34
Procedure: The compounds added to the medium and the concentrations thereof are as follows. • I-BET151: 2 μM • Pifthrin-α: 5 μM • PD0325901: 2 μM • 2-Me-5HT: 2 μM • CX4945: 2 μM • CHIR99021: 2 μM • Forskolin: 2 μM • DZnep: 50 nM • D4476: 2 μM • SB431542: 2 μM • ALK5 i II: 2 μM.
In the experiment of Example 29, the solution after staining with the Alizarin Red S staining solution was collected in a 96 well plate and the absorbance (OD 550 nm) was measured with an absorption spectrometer.

[15] = tested on: human dermal fibroblasts; HDFs; assay: Alizarin Red S staining (staining figure), fibroblast to osteoblast, Example 1; conditions: each compound 2 μM in calcification induction medium; day 24; FIG. 1
Procedure: It was washed 3 times with sterile distilled water. […] The well after staining was washed with sterile distilled water and photographed.
The concentrations of the compounds are as follows: • D4476: 2 μM • ALK5 inhibitor II: 2 μM • SB431542: 2 μM.

## IGF-1: Human insulin-like growth factor-1
[1]; IGF-1 100 ng/ml added with ALK5 i II 4 μM
  mRNA expression of BSP, ALK5 i II and IGF-1 compared to ALK5 i II: further significantly increased

## NC(=O)c1ccc(-c2nc(-c3ccc4c(c3)OCO4)c(-c3ccccn3)[nH]2)cc1 [SB431542, 4-[4-(1,3-Benzodioxol-5-yl)-5-(pyridin-2-yl)-1H-imidazol-2-yl]benzamide]
[2]
  conversion of human fibroblast to osteoblast, Alizarin Red S staining (absorbance OD 550 nm): converted to osteoblast having calcified bone matrix production ability
[3]
  conversion of fibroblast to brown adipocyte, UCP1 mRNA: converted fibroblast to brown adipocyte strongly expressing UCP1 gene
[4]
  efficiency in converting fibroblast to osteoblast (summary statement): highly efficient in converting fibroblast to osteoblast
[5]
  conversion of fibroblast to brown adipocytes, BODIPY staining and fluorescence intensity: converted fibroblast to brown adipocytes having lipid droplets stained with BODIPY
[6]
  lipid droplets stained with Bodipy, inhibitor alone: only a few cells contained lipid droplets stained with Bodipy
  lipid droplets stained with Bodipy / conversion to white adipocyte, inhibitor and Rosiglitazone: many cells were stained
[7]
  fat accumulation (BODIPY) / conversion to white adipocyte, co-addition of Rosiglitazone: more strongly induced fat accumulation than by the addition of Rosiglitazone alone
[8]
  conversion of fibroblast to brown adipocyte, UCP1 protein: converted fibroblast to brown adipocyte expressing UCP1 protein
  staining with anti-UCP1 antibody: many cells were stained with anti-UCP1 antibody
[9]
  conversion of fibroblast to brown adipocytes, AdipoQ mRNA: converted fibroblast to brown adipocytes expressing mRNA of AdipoQ gene
[10]
  conversion of human fibroblast to white adipocyte (mRNA markers): converted human fibroblast to white adipocyte
[11]
  conversion of fibroblast to brown adipocytes, CIDEA mRNA: converted fibroblast to brown adipocytes expressing mRNA of CIDEA gene
[12]
  conversion of human fibroblast to osteoblast, Osteocalcin and Alkaline Phosphatase mRNA: converted to osteoblast expressing osteocalcin and alkaline phosphatase gene
[13]
  conversion of fibroblast to brown adipocyte, Oil Red O staining: converted fibroblast to brown adipocyte
[14]
  conversion from fibroblast to osteoblast, Alizarin Red S staining and absorbance: induce conversion from fibroblast to osteoblast
[15]
  conversion of human fibroblast to osteoblast, Alizarin Red S staining (staining figure): converted to osteoblast having calcified is bone matrix production ability

## Cc1[nH]c2ccc(O)cc2c1CCN [2-Me-5HT]
[14]
  conversion from fibroblast to osteoblast, Alizarin Red S staining and absorbance: do not induce conversion from fibroblast to osteoblast

## Cc1ccc(C(=O)Cn2c3c(sc2=N)CCCC3)cc1 [Pifthrin-α]
[14]
  conversion from fibroblast to osteoblast, Alizarin Red S staining and absorbance: do not induce conversion from fibroblast to osteoblast

## Fc1ccc(Cl)cc1-c1nc(Nc2ccncc2)c2nccnc2n1 [SD208, 2-(5-Chloro-2-fluorophenyl)-4-[(4-pyridyl)amino]pteridine]
[4]; calcification induction medium, compounds 1 or 4 μM, TGF-β 10 ng/ml, day 21, FIG. 35, 36
  conversion of human fibroblast to osteoblast, Alizarin Red S / ALP staining and absorbance: can strongly convert human fibroblast to osteoblast
[4]
  efficiency in converting fibroblast to osteoblast (summary statement): highly efficient in converting fibroblast to osteoblast

## Cc1c[nH]c(-c2cnc(NCCNc3ccc(C#N)cn3)nc2-c2ccc(Cl)cc2Cl)n1 [CHIR]
[14]
  conversion from fibroblast to osteoblast, Alizarin Red S staining and absorbance: do not induce conversion from fibroblast to osteoblast

## NC(=O)c1ccc(-c2nc(-c3ccc4c(c3)OCCO4)c(-c3ccccn3)[nH]2)cc1 [D4476, 4-[4-(2,3-dihydro-1,4-benzodioxin-6-yl)-5-(2-pyridinyl) 1H-imidazol-2-yl]-benzamide]
[2]
  conversion of human fibroblast to osteoblast, Alizarin Red S staining (absorbance OD 550 nm): converted to osteoblast having calcified bone matrix production ability
[3]
  conversion of fibroblast to brown adipocyte, UCP1 mRNA: converted fibroblast to brown adipocyte strongly expressing UCP1 gene
[4]
  efficiency in converting fibroblast to osteoblast (summary statement): highly efficient in converting fibroblast to osteoblast
[5]
  conversion of fibroblast to brown adipocytes, BODIPY staining and fluorescence intensity: converted fibroblast to brown adipocytes having lipid droplets stained with BODIPY
[6]
  lipid droplets stained with Bodipy, inhibitor alone: only a few cells contained lipid droplets stained with Bodipy
  lipid droplets stained with Bodipy / conversion to white adipocyte, inhibitor and Rosiglitazone: many cells were stained
[7]
  fat accumulation (BODIPY) / conversion to white adipocyte, co-addition of Rosiglitazone: more strongly induced fat accumulation than by the addition of Rosiglitazone alone
[8]
  conversion of fibroblast to brown adipocyte, UCP1 protein: converted fibroblast to brown adipocyte expressing UCP1 protein
  staining with anti-UCP1 antibody: many cells were stained with anti-UCP1 antibody
[9]
  conversion of fibroblast to brown adipocytes, AdipoQ mRNA: converted fibroblast to brown adipocytes expressing mRNA of AdipoQ gene
[10]
  conversion of human fibroblast to white adipocyte (mRNA markers): converted human fibroblast to white adipocyte
[11]
  conversion of fibroblast to brown adipocytes, CIDEA mRNA: converted fibroblast to brown adipocytes expressing mRNA of CIDEA gene
[12]
  conversion of human fibroblast to osteoblast, Osteocalcin and Alkaline Phosphatase mRNA: converted to osteoblast expressing osteocalcin and alkaline phosphatase gene
[13]
  conversion of fibroblast to brown adipocyte, Oil Red O staining: converted fibroblast to brown adipocyte
[14]
  conversion from fibroblast to osteoblast, Alizarin Red S staining and absorbance: induce conversion from fibroblast to osteoblast
[15]
  conversion of human fibroblast to osteoblast, Alizarin Red S staining (staining figure): converted to osteoblast having calcified is bone matrix production ability

## C=C1/C(=C\C=C2/CCC[C@]3(C)[C@@H]([C@H](C)CCCC(C)(C)O)CC[C@@H]23)C[C@@H](O)C[C@@H]1O [VD3, 1α,25-dihydroxy Vitamin D3]
[1]; VD3 5 nM added with ALK5 i II 4 μM
  mRNA expression of OC, ALK5 i II and VD3 compared to ALK5 i II: significantly increased

## O=C(NOC[C@H](O)CO)c1ccc(F)c(F)c1Nc1ccc(I)cc1F [PD0325901]
[9]
  conversion of fibroblast to brown adipocytes, AdipoQ mRNA: converted fibroblast to brown adipocytes expressing mRNA of AdipoQ gene
[14]
  conversion from fibroblast to osteoblast, Alizarin Red S staining and absorbance: do not induce conversion from fibroblast to osteoblast

## Nc1nccc2c1ncn2[C@@H]1C=C(CO)C(O)[C@@H]1O (stereo partly shown) [DZnep]
[14]
  conversion from fibroblast to osteoblast, Alizarin Red S staining and absorbance: do not induce conversion from fibroblast to osteoblast

## COc1cc2c(cc1-c1c(C)noc1C)ncc1[nH]c(=O)n([C@H](C)c3ccccn3)c12 [I-BET]
[14]
  conversion from fibroblast to osteoblast, Alizarin Red S staining and absorbance: do not induce conversion from fibroblast to osteoblast
